Some results are limits rather than exact numbers.

The nature of data set [1]: Physical properties of 5-ISMN (static electricity, flowability, sublimation, solubility). The following applies: well-defined particle size fraction of 5-ISMN powder. In kind it is physicochemical.
Data set [2] in a line: Kinetics of release in vitro (rotating paddle dissolution). In kind it is physicochemical. The following applies: composition according to the invention, 100 rpm/900 ml of water. How it is done: The study of the changes in the percentage of 5-ISMN dissolved was performed as a function of time. This test was carried out using a rotating paddle apparatus (100 rpm/900 ml of water).

The conditions of data set [3]: plasma; recorded value; cited from earlier work.
For data set [4] the following is noted: cited from earlier work.
Data set [5] can be described thus: In vivo absorption profile.
Data set [6] is described as follows: Kinetics of release of the active principle in vitro as a function of pH. The class given is physicochemical. The following applies: tablet according to the invention. The method, then: This study was carried out at pH values of 1.5, 4.25 and 7.2 and variable values.
The nature of data set [7]: Particle size by air-jet sieve (ALPIN JET SIEVE). In kind it is physicochemical. The following applies: for particle size fraction 100 μm to 250 μm: desired profile 20 to 50%; for particle size fraction 80 μm to 100 μm: desired profile 40 to 60%; for particle size fraction larger than 500 μm: desired profile ≤ 0.5%; for particle size fraction 250 μm to 500 μm: desired profile ≤ 5%. An excerpt: The air-Jet sieve method used according to the invention to define the particle size of the 5-ISMN is a technique widely used by those skilled in the art on account of its great sensitivity and reliability, and is consequently very familiar to them. The operating conditions employed in the context of the invention will be clarified in greater detail below.
Characterization of the particle size of the 5-ISMN used according to the invention by the air-jet sieve, type ALPIN JET SIEVE, method
350 g (sic) partial air vacuum,
time 4 min from 80 to 100 μm, then 3 mm (sic) from 250 to 500 μm.
Under these conditions, three batches of 5-ISMN, A, B and C, were tested.

On to `O=[N+]([O-])O[C@@H]1CO[C@H]2[C@@H]1OC[C@@H]2O` [5-ISMN, isosorbide 5-mononitrate], for which, in data set [1], the electrostatic phenomena entry was “low level of electrostatic phenomena”; the flowability and compressibility result was “qualities of flowability and compressibility”; the tendency to sublime entry was “far less marked tendency to sublime”. Also, in data set [2] (0.25 hour), the “% dissolved at 0.25 hour” value is reported as 5% to 20%. In addition, in data set [2] (1 hour), the “% dissolved at 1 hour” value was 20% to 40%. Moreover, the “% dissolved at 4 hours” value in data set [2] (4 hours) is recorded as 60% to 80%. Moreover, in data set [2] (8 hours), the “% dissolved at 8 hours” value was not below 80%. The “minimal effective concentration (Ceff)” value in data set [3] is 100 ng/mL. Moreover, the sublimation result in data set [4] (60° C., 75% relative humidity) is “sublimation phenomenon”. In addition, in data set [4] (static electricity phenomenon, dry mixing), the flowability result was “virtually zero flowability”. For the same compound, the “solubility in water and buffer solutions” value in data set [4] (water and buffer solutions) was “very high solubility”. For the same compound, the “constant mean flux of in vivo absorption” value in data set [5] (calculated from mean curve of percentages of 5-ISMN absorbed) is listed as approximately 13.37 % h^-1. The absorption profile result in data set [5] (mean curve for the percentages of 5-ISMN absorbed) is “zero order entry up to approximately the fifth hour following administration”. In data set [6] (pH 1.5, 4.25 and 7.2), the “kinetic profiles of release at constant pH” value is reported as “do not differ significantly from one another”. In addition, the “dissolution profile obtained at variable pH” value in data set [6] (variable pH) is “pH-independent mode of release”.
For `O=[N+]([O-])O[C@@H]1CO[C@H]2[C@@H]1OC[C@@H]2O` [B, isosorbide 5-mononitrate], in data set [7], the “particle size fraction 100 μm to 250 μm” value worked out at 34.4%, the “particle size fraction 80 μm to 100 μm” value is on record as 48.2%, the “particle size fraction larger than 500 μm” value came to 0.0% and the “particle size fraction 250 μm to 500 μm” value is listed as 0.9%.
The matching figures for `O=[N+]([O-])O[C@@H]1CO[C@H]2[C@@H]1OC[C@@H]2O` [C, isosorbide 5-mononitrate]: 34.85%, 49.2%, 0.0% and 0.0%.
Take `O=[N+]([O-])O[C@@H]1CO[C@H]2[C@@H]1OC[C@@H]2O` [A, isosorbide 5-mononitrate]: in data set [7], the “particle size fraction 100 μm to 250 μm” value is 26%, the “particle size fraction 80 μm to 100 μm” value is 47.5%, the “particle size fraction larger than 500 μm” value stood at 0.0% and the “particle size fraction 250 μm to 500 μm” value was 0.0%.
